Assay results: paper PMC8533089, “Characteristics of Neurokinin-3 Receptor and Its Binding Sites by Mutational Analysis” (Biology, 2021)
Like-named read-outs stand apart in the source and are kept apart here.

What was measured:
[1] = target: tiTac3Ra (Oreochromis niloticus, UniProt A0A075QPN8); assay: CRE-Luc antagonist assay, wild-type receptor, COS-7; format: cell-based, tilapia (Oreochromis niloticus); conditions: for IC50: antagonist 0.001–1000 μM added 10 min before peptide
Description: In order to study the signaling pathways of the mutant tiTac3Ra, the entire coding regions of tiTac3Ra (GenBank accession no. KF471674), and both of the mutant receptors were inserted into pcDNA3.1 (Invitrogen, Massachusetts, United States). We used a sensitive luciferase (LUC) reporter gene assay. […] Transient transfection, cell procedures and stimulation protocols followed the procedures previously described. Briefly, 3 μg of each construct, together with 3 μg of a luciferase reporter plasmid were transiently transfected into COS-7 cells (American Type Culture Collection, Manassas, VA, USA). Forty-eight hours after transfection, cells transfected with Tac3Ra plasmid fused with GFP were applied with an Hoechst dye (Invitrogen, Massachusetts, United States; diluted 1:1000) in order to mark nuclei in the culture for transfection analysis.
Non-peptide molecules, SB-222200 (Sigma, Merck, Darmstadt, Germany) and Osanetant (Axon Medchem, Reston, VA, USA), known to antagonize mammalian NK3R [49] were studied for their ability to antagonize tiTac3Ra, which was activated with a fixed dose of the native ligands (10 nM tiNKB or tiNKF), combined with increasing doses of the antagonists (0.001–1000 μM). The antagonists were added 10 min prior to the addition of the peptides. IC50 values were calculated from concentration response curves by means of computerized nonlinear curve-fitting with Prism version 9 software (GraphPad, San Diego, CA, USA). All experiments were repeated at least 3 times using cells from independent transfections, each performed in triplicate.
NKB antagonists, SB-222200 (Figure 7A) and Osanetant (Figure 7B) were added in increasing concentrations (0.001–1000 μM) to transfected COS-7 that expressed tiTac3Ra. Ten minutes after the induction of the antagonists, the ligand, tiNKB or tiNKF (10 nM) was added to the media.

[2] = system: plasma GH and gonadotropins; assay: 14-day in vivo experiment: plasma GH and gonadotropins (ELISA); parameters: species or system adult male tilapia (Oreochromis niloticus); conditions: 500 µg/kg BW IP every 48 h, 14 days, versus control
Description: The levels of FSH, LH and GH in the plasma were measured by specific competitive enzyme-linked immunosorbent assay (ELISA), developed for tilapia, based on recombinant gonadotropins or GH that were created by using the yeast Pichia pastoris. For the ELISAs, we used primary antibody antisera against GH [51], FSHβ [52], or against rtLHβ [53], and rtFSHβα [52], rtLHβ [53] or tiGH for the standard curves. Sensitivity for the plasma measurements were 15.84 pg/mL for LH, 0.24 pg/mL for FSH and 30.0 pg/mL for GH. The inter-assay coefficient of variation (CV) was 14.8, 12.5, and 13.0%, while intra-assay CV was 7.2, 8.0, and 8.0% for LH, FSH and GH, respectively.
Adult male tilapia (BW 87.29 ± 26.1 g; gonado-somatic index (GSI 0.21% ± 0.36%) were IP injected with SB-222200 (500 µg/kg BW in 25% DMSO) and saline with 25% DMSO as a control every 48 h during a 14-day period. Blood was sampled every 48 h. Milt volume was collected from 6 fish from each group 7 and 14 days after the first injection, generally according to [55].

[3] = system: LH secretion; conditions: OVX ewes, micro-implants in the ARC; cited from earlier work
Excerpt: The effect of NKB/NKF peptides on gonadotropin secretion in fish is already well established. The first indication that NKB is widely expressed in fish species and has a stimulatory reproductive effect was shown in zebrafish, goldfish, and tilapia. […] Osetanant re ...

tiTac3Ra, sequence (A0A075QPN8 entry or part of it): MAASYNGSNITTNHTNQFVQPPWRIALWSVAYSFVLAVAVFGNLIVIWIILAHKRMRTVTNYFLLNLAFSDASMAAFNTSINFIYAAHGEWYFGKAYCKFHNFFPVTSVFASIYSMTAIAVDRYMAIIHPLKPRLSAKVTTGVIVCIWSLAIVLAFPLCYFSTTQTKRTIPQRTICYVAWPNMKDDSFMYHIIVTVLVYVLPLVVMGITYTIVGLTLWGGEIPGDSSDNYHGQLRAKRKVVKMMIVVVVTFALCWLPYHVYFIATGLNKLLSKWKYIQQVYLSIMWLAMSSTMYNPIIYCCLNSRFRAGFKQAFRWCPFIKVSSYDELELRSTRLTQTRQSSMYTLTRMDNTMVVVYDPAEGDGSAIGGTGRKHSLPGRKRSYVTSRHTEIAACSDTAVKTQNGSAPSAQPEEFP

SMILES: CC[C@H](NC(=O)c1c(C)c(-c2ccccc2)nc2ccccc12)c1ccccc1 [SB-222200]
- IC50 ([1]; 10 nM tiNKB, COS-7, CRE-Luc, read-out: IC50 versus tiNKB): 84.1 µM
- IC50 ([1]; 10 nM tiNKF, COS-7, CRE-Luc, read-out: IC50 versus tiNKF): 37.1 µM
- Emax ([1]; COS-7, CRE-Luc, 10 nM tiNKB or tiNKF, read-out: luciferase activity reduced to % of maximal response): 50%
- maximum response rate compared with Osanetant ([1]; Figure 7C,D): higher maximum response rate than Osanetant
- inhibitory effect on Tac3Ra activation ([1]; in words): strong inhibitory effect
- reduction of receptor activity (in words) ([1]; restated in Discussion): reduced the receptor activity by half
- Plasma GH and gonadotropins [2]: did not change significantly
- LH secretion [3]: disrupted LH secretion
